US20170210751A1, “PRMT5 INHIBITORS AND USES THEREOF” (Epizyme, Inc., priority 2014, published 2017)

How the values were obtained:
Z-138 cell line = assay: Z-138 Proliferation Assay (Cell Titer Glo); format: cell-based; settings: Homo sapiens, 120 h; Z-138 cells, 5 days incubation, ATP (Cell Titer Glo)
In short: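 Z-138 cells in RPMI with 10% FBS exposed 5 days at 37 °C to nine-point 3-fold dilutions, top 20 μM final, 0.2% DMSO, triplicate. ATP-based CellTiter-Glo luminescence; IC50 from 4-parameter fit of normalized curves.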

PRMT5/MEP50 = biological target: T1, PRMT5/MEP50 (Homo sapiens, UniProt O14744); assay: PRMT5 Biochemical Assay (PRMT5/MEP50 enzyme assay on peptide substrate, 3H-SAM Flashplate); settings: PRMT5/MEP50 4 nM, 3H-SAM 75 nM, peptide 40 nM, 30 min preincubation at 25 degrees Celsius
T1 construct: Flag-PRMT5; made in house; host or cells: Spodoptera frugiperda (SF9) insect cells, baculovirus (pDEST8)
In short: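 FLAG-PRMT5/His-MEP50 from Sf9 cells (4 nM) preincubated 30 min at 25 °C with compounds, then reacted with 75 nM 3H-SAM and 40 nM biotinylated histone H4 1-15 peptide in Bicine pH 7.6, 1% DMSO. Stopped with 600 uM cold SAM; streptavidin Flashplate capture, scintillation counts; % inhibition fitted to 3- or 4-parameter curve.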

T1 sequence (O14744 with tags, fused parts or gaps): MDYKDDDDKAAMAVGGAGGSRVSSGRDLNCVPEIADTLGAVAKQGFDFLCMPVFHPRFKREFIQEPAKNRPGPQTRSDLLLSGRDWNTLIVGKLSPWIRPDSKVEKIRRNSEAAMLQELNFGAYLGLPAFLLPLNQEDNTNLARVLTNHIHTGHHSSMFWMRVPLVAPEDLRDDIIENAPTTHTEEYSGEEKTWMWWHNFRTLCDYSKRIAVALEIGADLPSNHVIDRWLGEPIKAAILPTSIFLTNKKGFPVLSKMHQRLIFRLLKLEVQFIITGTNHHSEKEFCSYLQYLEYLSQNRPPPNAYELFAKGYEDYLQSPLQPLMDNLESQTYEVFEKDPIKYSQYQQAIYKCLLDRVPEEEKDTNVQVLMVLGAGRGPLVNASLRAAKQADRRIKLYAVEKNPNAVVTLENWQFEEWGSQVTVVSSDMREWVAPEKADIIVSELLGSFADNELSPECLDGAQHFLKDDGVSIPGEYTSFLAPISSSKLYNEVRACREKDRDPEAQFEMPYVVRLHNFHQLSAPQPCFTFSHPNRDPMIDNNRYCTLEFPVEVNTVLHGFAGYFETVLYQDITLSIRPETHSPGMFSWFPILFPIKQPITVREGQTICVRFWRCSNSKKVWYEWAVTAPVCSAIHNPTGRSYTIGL
T1 sequence (Q9BQA1 with tags, fused parts or gaps partner limits assumed): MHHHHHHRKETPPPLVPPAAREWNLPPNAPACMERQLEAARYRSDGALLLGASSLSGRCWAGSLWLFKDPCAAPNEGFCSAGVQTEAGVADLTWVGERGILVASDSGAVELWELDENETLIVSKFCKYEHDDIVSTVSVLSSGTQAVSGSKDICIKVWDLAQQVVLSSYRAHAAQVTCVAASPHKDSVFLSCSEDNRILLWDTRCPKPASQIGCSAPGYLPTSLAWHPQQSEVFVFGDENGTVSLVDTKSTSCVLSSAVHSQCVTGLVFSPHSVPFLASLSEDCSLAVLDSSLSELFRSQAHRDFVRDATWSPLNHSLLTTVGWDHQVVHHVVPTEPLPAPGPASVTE

IC50 (PRMT5/MEP50) [µM] | SMILES | EC50 (Z-138 cell line) [µM]
> 10 | CC(=O)N1CCC(Nc2cc(C(=O)NC[C@H](O)CN3CCc4[nH]cnc4C3)ccn2)CC1 [Compound 3-36, (S)-2-((1-acetylpiperidin-4-yl)amino)-N-(3-(6,7-dihydro-1H-imidazo[4,5-c]pyridin-5(4H)-yl)-2-hydroxypropyl)isonicotinamide] | > 5
1 to 10 | CC(=O)N1CCC(Nc2cc(C(=O)NC[C@H](O)CN3CCc4scnc4C3)ncn2)CC1 [Compound 1-32] | > 5
1 to 10 | CC(=O)N1CCC(Nc2cc(C(=O)NC[C@H](O)CN3CCc4scnc4C3)ccn2)CC1 [Compound 1-30] | > 5
> 10 | CC(=O)N1CCC(Nc2cc(C(=O)NC[C@H](O)CN3CCCc4c3cnn4C)ncn2)CC1 [Compound 3-58] | > 5
> 10 | CC(=O)N1CCC(Nc2cc(C(=O)NC[C@H](O)CN3CCc4nc(C)[nH]c4C3)ccn2)CC1 [Compound 3-54] | > 5
> 10 | CC(=O)N1CCC(Nc2cc(C(=O)NC[C@H](O)CN3CCc4c(ncn4C)C3)ccn2)CC1 [Compound 3-22, (S)-2-((1-acetylpiperidin-4-yl)amino)-N-(2-hydroxy-3-(1-methyl-6,7-dihydro-1H-imidazo[4,5-c]pyridin-5(4H)-yl)propyl)isonicotinamide] | > 5
0.101 to 1 | CC(=O)N1CCC(Nc2cc(C(=O)NC[C@H](O)CN3CCc4nc(N)sc4C3)ccn2)CC1 [Compound 1-35] | > 5
> 10 | CC(=O)N1CC(Nc2cc(C(=O)NC[C@H](O)CN3CCc4c(ncn4C)C3)ncn2)C1 [Compound 3-45] | > 5
> 10 | CC(=O)N1CC(Nc2cc(C(=O)NC[C@H](O)CN3CCCc4c3cnn4C)ncn2)C1 [Compound 3-46] | > 5
1 to 10 | CC(=O)N1CCC(Nc2cc(C(=O)NC[C@H](O)CN3CCc4nc(N)sc4C3)ncn2)CC1 [Compound 1-38] | > 5
> 10 | CC(=O)N1CC(Nc2cc(C(=O)NC[C@H](O)CN3CCc4[nH]cnc4C3)ncn2)C1 [Compound 3-33, (S)-6-((1-acetylazetidin-3-yl)amino)-N-(3-(6,7-dihydro-1H-imidazo[4,5-c]pyridin-5(4H)-yl)-2-hydroxypropyl)pyrimidine-4-carboxamide] | > 5
0.101 to 1 | CC(=O)N1CC(Nc2cc(C(=O)NC[C@H](O)CN3CCc4ncccc4C3)ncn2)C1 [Compound 2-9, (S)-6-((1-acetylazetidin-3-yl)amino)-N-(3-(7,8-dihydro-1,6-naphthyridin-6(5H)-yl)-2-hydroxypropyl)pyrimidine-4-carboxamide] | > 5
1 to 10 | O=C(COc1cccc2cccnc12)NCC(O)CN1CCc2cccnc2C1 (stereo not drawn) [Compound 2-5, N-[2-hydroxy-3-(5,6,7,8-tetrahydro-1,7-naphthyridin-7-yl)propyl]-2-(quinolin-8-yloxy)acetamide] | > 5
> 10 | O=C(NC[C@H](O)CN1CCc2ncsc2C1)c1cc(NC2COC2)ncn1 [Compound 1-16, (S)—N-(3-(6,7-dihydrothiazolo[5,4-c]pyridin-5(4H)-yl)-2-hydroxypropyl)-6-(oxetan-3-ylamino)pyrimidine-4-carboxamide] | > 5
> 10 | Cn1cc2c(n1)CCN(C[C@@H](O)CNC(=O)c1cc(NC3COC3)ncn1)C2 [Compound 3-27] | > 5
1 to 10 | CC(=O)N1CCC(Nc2cc(C(=O)NC[C@H](O)CN3CCc4sc(C)nc4C3)ccn2)CC1 [Compound 1-33] | > 5
1 to 10 | O=C(NC[C@H](O)CN1CCc2ccncc2C1)c1cc(NC2COC2)ncn1 [Compound 2-24] | > 5
1 to 10 | O=C(COc1cccc2cccnc12)NCC(O)CN1CCc2cnccc2C1 (stereo not drawn) [Compound 2-7, N-[2-hydroxy-3-(1,2,3,4-tetrahydro-2,6-naphthyridin-2-yl)propyl]-2-(quinolin-8-yloxy)acetamide] | > 5
